From ChEMBL document CHEMBL3259778, “Design and synthesis of novel indole-chalcone fibrates as lipid lowering agents” (2014)
Calls of active or inactive are those of the source. The rule behind the calls is not given here.

Key:
[1] = system: Rattus norvegicus; experiment: Antidyslipidemic activity in triton-induced hyperlipidemic Charles Foster rat assessed as plasma post heparin lipolytic activity at 100 mg/kg, po relative to control; assay type: functional
[2] = system: Rattus norvegicus; experiment: Antidyslipidemic activity in triton-induced hyperlipidemic Charles Foster rat assessed as reduction in total cholesterol in plasma at 100 mg/kg, po relative to control; assay type: functional; design: scale not given: the % may be the effect or the level left
[3] = system: Rattus norvegicus; experiment: Antidyslipidemic activity in triton-induced hyperlipidemic Charles Foster rat assessed as reduction in phospholipid in plasma at 100 mg/kg, po relative to control; assay type: functional; design: scale not given: the % may be the effect or the level left
[4] = system: Rattus norvegicus; experiment: Antidyslipidemic activity in triton-induced hyperlipidemic Charles Foster rat assessed as reduction in triglyceride in plasma at 100 mg/kg, po relative to control; assay type: functional; design: scale not given: the % may be the effect or the level left
[5] = system: Rattus norvegicus; experiment: Antidyslipidemic activity in triton-induced hyperlipidemic Charles Foster rat assessed as increase in total lipolytic activity of lipoprotein lipase at 100 mg/kg, po relative to control; assay type: functional, organism-based; design: dose 100 mg/kg
[6] = system: Rattus norvegicus; experiment: Antidyslipidemic activity in triton-induced hyperlipidemic Charles Foster rat assessed as reduction in total cholesterol in plasma at 50 to 150 mg/kg, po relative to control; assay type: functional; design: scale not given: the % may be the effect or the level left; details: dose mg/kg 50-150
[7] = system: Rattus norvegicus; experiment: Antidyslipidemic activity in triton-induced hyperlipidemic po dosed Charles Foster rat assessed as reduction in LDL in plasma relative to control; assay type: functional, organism-based
[8] = system: Rattus norvegicus; experiment: Antidyslipidemic activity in triton-induced hyperlipidemic po dosed Charles Foster rat assessed as reduction in VLDL in plasma relative to control; assay type: functional, organism-based
[9] = Antioxidant activity assessed as hydroxyl ion scavenging activity measured as MDA formation at 200 ug/ml after 90 mins by spectrophotometry relative to control; assay type: functional
[10] = Antioxidant activity assessed as suppression of microsomal lipid peroxidation measured as MDA formation at 200 ug/ml after 90 mins by spectrophotometry relative to control; assay type: functional
[11] = system: Rattus norvegicus; experiment: Antidyslipidemic activity in triton-induced hyperlipidemic Charles Foster rat assessed as reduction in triglyceride in plasma at 50 to 150 mg/kg, po relative to control; assay type: functional; design: scale not given: the % may be the effect or the level left; details: dose mg/kg 50-150
[12] = Antioxidant activity assessed as superoxide ion scavenging activity measured as formazone formation at 200 ug/ml after 90 mins by spectrophotometry relative to control; assay type: functional
[13] = system: Rattus norvegicus; experiment: Antidyslipidemic activity in triton-induced hyperlipidemic Charles Foster rat assessed as reduction in phospholipid in plasma at 50 to 150 mg/kg, po relative to control; assay type: functional; design: scale not given: the % may be the effect or the level left; details: dose mg/kg 50-150
[14] = system: Rattus norvegicus; experiment: Antidyslipidemic activity in triton-induced hyperlipidemic po dosed Charles Foster rat assessed as increase in HDL in plasma relative to control; assay type: functional, organism-based

| SMILES | Activity [1] | Activity [2] | Activity [3] | Activity [4] | Activity [5] | Activity [6] | Activity [7] | Activity [8] | Activity [9] | Activity [10] | Activity [11] | Activity [12] | Activity [13] | Activity [14] |
| --- | --- | --- | --- | --- | --- | --- | --- | --- | --- | --- | --- | --- | --- | --- |
| CCOC(=O)CCCOc1ccc(C(=O)/C=C/c2c(C)[nH]c3ccccc23)cc1 | 7% | 13% | 16% | 14% | – | – | – | – | – | – | – | – | – | – |
| CCOC(=O)C(C)Oc1ccc(C(=O)/C=C/c2c[nH]c3ccc(OC)cc23)cc1 (stereo unspecified) | 6% | 11% | 13% | 10% | – | – | – | – | – | – | – | – | – | – |
| CC(C)OC(=O)C(C)(C)Oc1ccc(C(=O)c2ccc(Cl)cc2)cc1 [FENOFIBRATE] | 19% | 32% | 30% | 33% | Active | – | – | – | – | – | – | – | – | – |
| CCOC(=O)C(C)Oc1ccc(C(=O)/C=C/c2c[nH]c3ccccc23)cc1 (stereo unspecified) | 8% | 15% | 13% | 12% | – | – | – | – | – | – | – | – | – | – |
| CCOC(=O)CCCOc1ccc(C(=O)/C=C/c2c[nH]c3ccccc23)cc1 | 19% | 31% | 32% | 30% | Active | 22% | Active | Active | 37% | 35% | 20% | 31% | 20% | Active |
| CCOC(=O)C(C)(C)Oc1ccc(C(=O)/C=C/c2c(C)[nH]c3ccccc23)cc1 | 20% | 32% | 33% | 30% | Active | 24% | Active | Active | 41% | 40% | 25% | 36% | 26% | Active |
| CCC(Oc1ccc(C(=O)/C=C/c2c(C)[nH]c3ccccc23)cc1)C(=O)OC (stereo unspecified) | 16% | 26% | 24% | 27% | Active | 14% | Active | Active | 29% | 28% | 15% | 27% | 17% | Active |
| COC(=O)CCCOc1ccc(C(=O)/C=C/c2c(C)[nH]c3ccccc23)cc1 | 9% | 15% | 18% | 16% | – | – | – | – | – | – | – | – | – | – |
| COC(=O)C(C)Oc1ccc(C(=O)/C=C/c2c[nH]c3ccccc23)cc1 (stereo unspecified) | 6% | 13% | 14% | 12% | – | – | – | – | – | – | – | – | – | – |
| CCC(Oc1ccc(C(=O)/C=C/c2c[nH]c3ccccc23)cc1)C(=O)OC (stereo unspecified) | 3% | 8% | 8% | 9% | – | – | – | – | – | – | – | – | – | – |
| COC(=O)CCCOc1ccc(C(=O)/C=C/c2c[nH]c3ccccc23)cc1 | 14% | 20% | 22% | 22% | – | – | – | – | 32% | 30% | – | 26% | – | – |
| OC[C@@H](O)[C@@H](O)[C@H](O)[C@H](O)CO | – | – | – | – | – | – | – | – | 53% | – | – | – | – | – |
| CCOC(=O)C(CC)Oc1ccc(C(=O)/C=C/c2c(C)[nH]c3ccccc23)cc1 (stereo unspecified) | 14% | 20% | 22% | 22% | – | – | – | – | – | – | – | – | – | – |
| CCOC(=O)C(C)Oc1ccc(C(=O)/C=C/c2c[nH]c3ccc(Cl)cc23)cc1 (stereo unspecified) | 7% | 11% | 15% | 13% | – | – | – | – | – | – | – | – | – | – |
| COC(=O)CCCOc1ccc(C(=O)/C=C/c2c[nH]c3ccc(Cl)cc23)cc1 | 4% | 10% | 11% | 10% | – | – | – | – | – | – | – | – | – | – |
| COC(=O)C(C)(C)Oc1ccc(C(=O)/C=C/c2c(C)[nH]c3ccccc23)cc1 | 6% | 10% | 12% | 10% | – | – | – | – | – | – | – | – | – | – |
| Oc1ncnc2[nH]ncc12 | – | – | – | – | – | – | – | – | – | – | – | 49% | – | – |
| Cc1c(C)c2c(c(C)c1O)CC[C@@](C)(CCC[C@H](C)CCC[C@H](C)CCCC(C)C)O2 | – | – | – | – | – | – | – | – | – | 46% | – | – | – | – |
| COC(=O)CCCOc1ccc(C(=O)/C=C/c2c[nH]c3ccc(OC)cc23)cc1 | 7% | 13% | 11% | 14% | – | – | – | – | – | – | – | – | – | – |
| COC(=O)C(C)Oc1ccc(C(=O)/C=C/c2c[nH]c3ccc(Cl)cc23)cc1 (stereo unspecified) | 3% | 12% | 14% | 17% | – | – | – | – | – | – | – | – | – | – |
| CCOC(=O)C(CC)Oc1ccc(C(=O)/C=C/c2c[nH]c3ccc(Cl)cc23)cc1 (stereo unspecified) | 13% | 18% | 16% | 16% | – | – | – | – | – | – | – | – | – | – |
| CCOC(=O)C(C)(C)Oc1ccc(C(=O)/C=C/c2c[nH]c3ccccc23)cc1 | 14% | 20% | 22% | 22% | – | – | – | – | 38% | 36% | – | 33% | – | – |
